In ChEMBL document CHEMBL3525943, “Regiospecific and stereospecific triangulation of the structures of metabolites formed by sequential metabolism at multiple prochiral centers” (Drug Metab Dispos, 2012):

What was measured:
Conditions in all cases: in vivo; call rule not given here
Rattus norvegicus [1] = experiment: Total drug recovery in female Sprague-Dawley rat treated with [14C]-AMG 221 at 2 mg/kg, po measured over 48 hrs by liquid scintillation counting analysis; assay type: ADME, organism-based; design: dose 2 mg/kg, route oral
[2] = Retention time of the compound in Beagle dog urine treated with [14C]-AMG 221 at 2 mg/kg, po measured over 24 hrs by LC-MS/HPLC radiometric analysis; assay type: ADME, organism-based, Canis lupus familiaris; design: dose 2 mg/kg, route oral
[3] = Drug level in Sprague-Dawley rat urine treated with [14C]-(S)-2-((1R,2S,4R,5S)-5-hydroxybicyclo[2.2.1]heptan-2-ylamino)-5-isopropyl-5-methylthiazol-4(5H)-one at 5 mg/kg, po measured over 48 hrs by LC-MS/MS analysis; assay type: ADME, organism-based; design: dose 5 mg/kg, route oral
[4] = Drug metabolism in Sprague-Dawley rat urine assessed as formation of (S)-2-((1R,2S,4R,5S)-5-hydroxybicyclo[2.2.1]heptan-2-ylamino)-5-isopropyl-5-methylthiazol-4(5H)-one at 2 mg/kg, po measured over 24 hrs by LC-MS/HPLC radiometric analysis; assay type: ADME, organism-based; design: dose 2 mg/kg, route oral
[5] = Drug metabolism in Sprague-Dawley rat feces assessed as formation of (1R,2R,4R,5S)-5-((S)-5-isopropyl-5-methyl-4-oxo-4,5-dihydrothiazol-2-ylamino)bicyclo[2.2.1]heptan-2-yl hydrogen sulfate at 2 mg/kg, po measured over 24 hrs by LC-MS/HPLC radiometric analysis; assay type: ADME, organism-based; design: dose 2 mg/kg, route oral
[6] = Drug metabolism in Sprague-Dawley rat urine assessed as formation of (S)-2-((1S,2S,4R)-bicyclo[2.2.1]heptan-2-ylamino)-5-((R)-1-hydroxypropan-2-yl)-5-methylthiazol-4(5H)-one at 2 mg/kg, po measured over 24 hrs by LC-MS/HPLC radiometric analysis; assay type: ADME, organism-based; design: dose 2 mg/kg, route oral
[7] = Drug metabolism in Sprague-Dawley rat urine assessed as formation of (S)-5-isopropyl-5-methyl-2-((1R,2S,4R)-5-oxobicyclo[2.2.1]heptan-2-ylamino)thiazol-4(5H)-one at 2 mg/kg, po measured over 24 hrs by LC-MS/HPLC radiometric analysis; assay type: ADME, organism-based; design: dose 2 mg/kg, route oral
Plasma [8] = experiment: Drug metabolism in Sprague-Dawley rat plasma assessed as formation of (S)-2-((1S,2S,4R)-bicyclo[2.2.1]heptan-2-ylamino)-5-((R)-1-hydroxypropan-2-yl)-5-methylthiazol-4(5H)-one at 2 mg/kg, po measured at 0.5 hrs by LC-MS/HPLC radiometric analysis; assay type: ADME, organism-based; design: dose 2 mg/kg, route oral
[9] = Drug level in Sprague-Dawley rat urine at 2 mg/kg, po measured over 24 hrs by LC-MS/HPLC radiometric analysis; assay type: ADME, organism-based; design: dose 2 mg/kg, route oral
[10] = Drug recovery in urine of Sprague-Dawley rat at 2 mg/kg, po measured over 48 hrs by liquid scintillation counting analysis; assay type: ADME, organism-based; design: dose 2 mg/kg, route oral
[11] = Drug metabolism in Sprague-Dawley rat urine assessed as formation of trihydroxy norbornyl metabolite at 2 mg/kg, po measured over 24 hrs by LC-MS/HPLC radiometric analysis; assay type: ADME, organism-based; design: dose 2 mg/kg, route oral
[12] = Drug level in Sprague-Dawley rat feces at 2 mg/kg, po measured over 24 hrs by LC-MS/HPLC radiometric analysis; assay type: ADME, organism-based; design: dose 2 mg/kg, route oral
[13] = Drug metabolism in Sprague-Dawley rat feces assessed as formation of trihydroxy norbornyl metabolite at 2 mg/kg, po measured over 24 hrs by LC-MS/HPLC radiometric analysis; assay type: ADME, organism-based; design: dose 2 mg/kg, route oral
Plasma [14] = experiment: Drug level in Sprague-Dawley rat plasma at 2 mg/kg, po measured at 0.5 hrs by LC-MS/HPLC radiometric analysis; assay type: ADME, organism-based; design: dose 2 mg/kg, route oral
[15] = Drug metabolism in Sprague-Dawley rat urine assessed as formation of (S)-2-((1R,2S,4R,5S)-5-hydroxybicyclo[2.2.1]heptan-2-ylamino)-5-((S)-1-hydroxypropan-2-yl)-5-methylthiazol-4(5H)-one at 2 mg/kg, po measured over 24 hrs by LC-MS/HPLC radiometric analysis; assay type: ADME, organism-based; design: dose 2 mg/kg, route oral
[16] = Drug metabolism in Sprague-Dawley rat urine assessed as formation of (S)-2-((1R,2S,4R,5S)-5-hydroxybicyclo[2.2.1]heptan-2-ylamino)-5-(2-hydroxypropan-2-yl)-5-methylthiazol-4(5H)-one at 2 mg/kg, po measured over 24 hrs by LC-MS/HPLC radiometric analysis; assay type: ADME, organism-based; design: dose 2 mg/kg, route oral
Plasma [17] = experiment: Drug metabolism in Sprague-Dawley rat plasma assessed as formation of (S)-2-((1R,2S,4R,5R)-5-hydroxybicyclo[2.2.1]heptan-2-ylamino)-5-isopropyl-5-methylthiazol-4(5H)-one at 2 mg/kg, po measured at 0.5 hrs by LC-MS/HPLC radiometric analysis; assay type: ADME, organism-based; design: dose 2 mg/kg, route oral
[18] = Drug metabolism in Sprague-Dawley rat urine assessed as formation of (S)-2-((1R,2S,4R,5R)-5-hydroxybicyclo[2.2.1]heptan-2-ylamino)-5-isopropyl-5-methylthiazol-4(5H)-one at 2 mg/kg, po measured over 24 hrs by LC-MS/HPLC radiometric analysis; assay type: ADME, organism-based; design: dose 2 mg/kg, route oral
Plasma [19] = experiment: Drug metabolism in Sprague-Dawley rat plasma assessed as formation of (S)-2-((1R,2S,4R,5S)-5-hydroxybicyclo[2.2.1]heptan-2-ylamino)-5-isopropyl-5-methylthiazol-4(5H)-one at 2 mg/kg, po measured at 0.5 hrs by LC-MS/HPLC radiometric analysis; assay type: ADME, organism-based; design: dose 2 mg/kg, route oral
Plasma [20] = experiment: Drug metabolism in Sprague-Dawley rat plasma assessed as formation of (S)-5-isopropyl-5-methyl-2-((1R,2S,4R)-5-oxobicyclo[2.2.1]heptan-2-ylamino)thiazol-4(5H)-one at 2 mg/kg, po measured at 0.5 hrs by LC-MS/HPLC radiometric analysis; assay type: ADME, organism-based; design: dose 2 mg/kg, route oral
[21] = Drug recovery in feces of Sprague-Dawley rat at 2 mg/kg, po measured over 48 hrs by liquid scintillation counting analysis; assay type: ADME, organism-based; design: dose 2 mg/kg, route oral
[22] = Drug metabolism in Sprague-Dawley rat urine assessed as formation of (S)-2-((1S,2S,4R,6R)-6-hydroxybicyclo[2.2.1]heptan-2-ylamino)-5-((S)-1-hydroxypropan-2-yl)-5-methylthiazol-4(5H)-one at 2 mg/kg, po measured over 24 hrs by LC-MS/HPLC radiometric analysis; assay type: ADME, organism-based; design: route oral, dose 2 mg/kg
Plasma [23] = experiment: Drug metabolism in Sprague-Dawley rat plasma assessed as formation of (S)-2-((1S,2S,4R)-bicyclo[2.2.1]heptan-2-ylamino)-5-((S)-1-hydroxypropan-2-yl)-5-methylthiazol-4(5H)-one at 2 mg/kg, po measured at 0.5 hrs by LC-MS/HPLC radiometric analysis; assay type: ADME, organism-based; design: dose 2 mg/kg, route oral
Rattus norvegicus [24] = experiment: Total drug recovery in Sprague-Dawley rat at 2 mg/kg, po measured over 48 hrs by liquid scintillation counting analysis; assay type: ADME, organism-based; design: dose 2 mg/kg, route oral
[25] = Drug metabolism in Sprague-Dawley rat urine assessed as formation of (S)-2-((1S,2S,4R,6R)-6-hydroxybicyclo[2.2.1]heptan-2-ylamino)-5-isopropyl-5-methylthiazol-4(5H)-one at 2 mg/kg, po measured over 24 hrs by LC-MS/HPLC radiometric analysis; assay type: ADME, organism-based; design: dose 2 mg/kg, route oral
Plasma [26] = experiment: Drug level in Sprague-Dawley rat plasma at 5 mg/kg, po measured after 72 hrs by liquid scintillation counting analysis; assay type: ADME, organism-based; design: dose 5 mg/kg, route oral
[27] = Drug recovery in urine of Sprague-Dawley rat at 5 mg/kg, po measured after 72 hrs by liquid scintillation counting analysis; assay type: ADME, organism-based; design: dose 5 mg/kg, route oral
[28] = Drug recovery in feces of Sprague-Dawley rat at 5 mg/kg, po measured after 72 hrs by liquid scintillation counting analysis; assay type: ADME, organism-based; design: dose 5 mg/kg, route oral
[29] = Drug recovery in urine of bile duct cannulated Sprague-Dawley rat at 5 mg/kg, po measured over 48 hrs by liquid scintillation counting analysis; assay type: ADME, organism-based; design: dose 5 mg/kg, route oral
[30] = Drug metabolism in Sprague-Dawley rat urine assessed as formation of (S)-2-((1R,2S,4R,5R)-5-hydroxybicyclo[2.2.1]heptan-2-ylamino)-5-((S)-1-hydroxypropan-2-yl)-5-methylthiazol-4(5H)-one at 5 mg/kg, po measured over 24 hrs by LC-MS/HPLC radiometric analysis; assay type: ADME, organism-based; design: dose 5 mg/kg, route oral
[31] = Drug metabolism in Sprague-Dawley rat urine assessed as formation of (S)-5-isopropyl-5-methyl-2-((1R,2S,4R)-5-oxobicyclo[2.2.1]heptan-2-ylamino)thiazol-4(5H)-one at 5 mg/kg, po measured over 24 hrs by LC-MS/HPLC radiometric analysis; assay type: ADME, organism-based; design: dose 5 mg/kg, route oral
[32] = Drug metabolism in Sprague-Dawley rat urine assessed as formation of (2S,3S,4S,5R)-3,4,5-trihydroxy-6-((1R,2S,4R,5S)-5-((S)-5-isopropyl-5-methyl-4-oxo-4,5-dihydrothiazol-2-ylamino)bicyclo[2.2.1]heptan-2-yloxy)tetrahydro-2H-pyran-2-carboxylic acid at 5 mg/kg, po measured over 48 hrs by LC-MS/HPLC radiometric analysis; assay type: ADME, organism-based; design: dose 5 mg/kg, route oral
[33] = Drug metabolism in Sprague-Dawley rat urine assessed as formation of (S)-2-((1R,2S,4R,5S)-5-hydroxybicyclo[2.2.1]heptan-2-ylamino)-5-((R)-1-hydroxypropan-2-yl)-5-methylthiazol-4(5H)-one at 5 mg/kg, po measured over 24 hrs by LC-MS/HPLC radiometric analysis; assay type: ADME, organism-based; design: dose 5 mg/kg, route oral
[34] = Drug metabolism in Sprague-Dawley rat urine assessed as formation of (S)-2-((1R,2S,4R,5S)-5-hydroxybicyclo[2.2.1]heptan-2-ylamino)-5-(2-hydroxypropan-2-yl)-5-methylthiazol-4(5H)-one at 5 mg/kg, po measured over 24 hrs by LC-MS/HPLC radiometric analysis; assay type: ADME, organism-based; design: dose 5 mg/kg, route oral
[35] = Drug recovery in bile of bile duct cannulated Sprague-Dawley rat at 5 mg/kg, po measured over 48 hrs by liquid scintillation counting analysis; assay type: ADME, organism-based; design: dose 5 mg/kg, route oral

Question: For `CC(C)[C@]1(C)SC(N[C@H]2C[C@H]3C[C@@H]2C[C@@H]3O[C@@H]2O[C@H](C(=O)O)[C@@H](O)[C@H](O)[C@H]2O)=NC1=O`, which Drug recovery (Rattus norvegicus [1]) is on record?
Answer: 0.2%

Question: What about the Retention_time [2] of the same compound?
Answer: 20.6 min

Question: And the Drug metabolism [3]?
Answer: metabolite_detected

Question: Which results are given for `CC(C)[C@]1([14CH3])SC(N[C@H]2C[C@@H]3CC[C@H]2C3)=NC1=O`?
Answer: Drug metabolism [4]: metabolite_detected; Drug metabolism [5]: metabolite_detected; Drug metabolism [6]: metabolite_detected; Drug metabolism [7]: metabolite_detected; Drug metabolism (Plasma [8]): metabolite_detected; Drug uptake [9]: Not Active; Drug recovery [10]: 64%; Drug metabolism [11]: metabolite_detected; Drug uptake [12]: Not Active; Drug metabolism [13]: metabolite_detected; Drug uptake (Plasma [14]): Active; Drug metabolism [15]: metabolite_detected; Drug metabolism [16]: metabolite_detected; Drug metabolism (Plasma [17]): metabolite_detected; Drug metabolism [18]: metabolite_detected; Drug metabolism (Plasma [19]): metabolite_detected; Drug metabolism (Plasma [20]): metabolite_detected; Drug recovery [21]: 14%; Drug metabolism [22]: metabolite_detected; Drug metabolism (Plasma [23]): metabolite_detected; Drug recovery (Rattus norvegicus [24]): 81%; Drug metabolism [25]: metabolite_detected

Question: For `CC(C)[C@]1([14CH3])SC(N[C@H]2C[C@H]3C[C@@H]2C[C@@H]3O)=NC1=O`, which Drug uptake (Plasma [26]) is on record?
Answer: Active

Question: What about the Drug recovery [27] of the same compound?
Answer: 89%

Question: And the Drug uptake [9]?
Answer: Active

Question: What about the Drug recovery [28] of the same compound?
Answer: 7%

Question: And the Drug recovery [29]?
Answer: 55%

Question: And the Drug metabolism [30]?
Answer: metabolite_detected

Question: And the Drug metabolism [31]?
Answer: metabolite_detected

Question: And the Drug metabolism [32]?
Answer: metabolite_detected

Question: And the Drug metabolism [33]?
Answer: metabolite_detected

Question: And the Drug metabolism [34]?
Answer: metabolite_detected

Question: And the Drug recovery [35]?
Answer: 10%
